Assay results taken from a melting point compilation (Tetko et al.; mined from patent text by program, amines drawn as free bases though some values may be those of a salt).

Row | SMILES | melting point
1 | Nc1ccc(NCCO)c(S(=O)(=O)CCO)c1 | 130 °C
2 | Cc1noc(=O)n1C/C(F)=C\CCI | 58.1 to 58.6 °C
3 | Cc1occ(C(F)(F)F)c1C(=O)O | 140 °C
4 | Cc1ccc(S(=O)(=O)NC(C)(C)CO)cc1NC(=O)c1cnn2c(C3CC3)cc(-c3ccc(C(F)(F)F)cc3)nc12 | 232 to 233 °C
5 | N#Cc1cnc2ccsc2c1Sc1ccc(Cl)cc1Cl | 126 to 128 °C
6 | CC1(C)C(=O)N(c2ccc([N+](=O)[O-])c(C(F)(F)F)c2)C(=O)N1CCCN1C(=O)N(c2ccc([N+](=O)[O-])c(C(F)(F)F)c2)C(=O)C1(C)C | 164 to 165 °C
7 | Cc1cc(-c2nc3cccnn3c2-c2ccnc(NC(=O)c3cccnc3C)c2)ccc1F | 258 to 259 °C
8 | O=C1CC(c2c(-c3ccc[nH]3)[nH]c3ccc(Cl)cc23)C(=O)N1 (configuration not stated) | 138 to 144 °C
9 | Cc1c(-c2ccccc2)c(N2CC[C@](C)(N)C2)c2oc(C(=O)N(C)C)nc2c1C#N | 202 to 204 °C
10 | CCOC(=O)c1cc2ccc([Si](C)(C)C)cc2[nH]1 | 127 to 129 °C
11 | COC(=O)CCCc1cc2nc(Cl)ccc2n1S(=O)(=O)c1ccc(-c2ccccc2)cc1 | 122 to 124 °C
12 | NC(=O)[C@H]1CCCN2CC[C@@H]3c4cc(Cl)ccc4N[C@@H]3[C@H]12 (racemic) | 270 °C
13 | FC(F)(F)c1cc(CO[C@@H]2CCCN(Cc3ccco3)[C@@H]2c2ccccc2)cc(C(F)(F)F)c1 (relative stereo) | 103 to 104 °C
14 | CN1CCN(c2sc(-c3nc4ccccc4c(=O)n3-c3ccc(Cl)cc3)cc2-c2ccc(S(C)(=O)=O)cc2)CC1 | 232 to 233 °C
15 | Cn1c(-c2ccc(-c3cccnc3)cc2)cnc1[C@H](Cc1ccccn1)N(C=O)c1cc2cc(Cl)ccc2o1 | 158 to 160 °C
16 | CCCCCCCCCCCCCC=Cc1cc(C(=O)O)c[nH]1 | 90 to 96 °C
17 | FC(F)(F)Oc1ccc(Nc2cc(-n3ccc(C(F)(F)F)n3)c3ccccc3n2)cc1 | 128 to 130 °C
18 | Cn1nc(Oc2ccc([N+](=O)[O-])c(N)c2)cc1C(F)(F)F | 91 to 92 °C
19 | CCN(CCCN1c2ccccc2N(C)C(=O)c2ccc(C)nc21)C(C)C | 104 to 105 °C
20 | CCCOc1ccc(-c2scc(-c3ccccc3Cl)c2CC(=O)N=C(N)N)cc1 | 98 to 99 °C
21 | CCOc1cc(Cc2cnc(N)nc2N)cc2c1OC(C)(C)C=C2c1ccc(OC)c(OC)c1 | 191 to 192 °C

Row | SMILES | melting point
22 | CC(C)(C)c1ccc(C(=O)Nc2cn3nc(NCCc4ccncc4)ccc3n2)cc1 | 279 °C
23 | CCn1nc(C)c2c1NC(=O)CC2C (configuration not stated) | 141 to 142 °C
24 | Cc1cc(F)ccc1-c1cc(-c2ccccc2)nc(C(C)C)c1C=O | 110 to 112 °C
25 | O=C(c1ncc[nH]1)c1cc(F)c(F)cc1Cl | 80 to 81 °C
26 | CC1C(=S)Nc2c(F)cc(F)cc21 (configuration not stated) | 151 to 152 °C
27 | CCN(CC)C(=O)c1nc(/C=C/c2ccc([N+](=O)[O-])o2)no1 | 118 to 119 °C
28 | O=C(NC1CC1)c1cc(Nc2nc(N3CCC[C@H]3CO)nc3ccoc23)n[nH]1 | 96.8 °C
29 | OC1CC2OCCN3CCC4c5ccccc5N1C4C23 (configuration not stated) | 180 °C
30 | Cc1cccc(C)c1CS(=O)(=O)NCCc1c(CCCc2ccc(C(=O)O)cc2)c2cc(Cl)ccc2n1C(c1ccccc1)c1ccccc1 | 193 °C
31 | COCNC(=O)c1snc(Cl)c1Cl | 79 to 87 °C
32 | CCN(CC)CCc1cccc(N2C(=O)N(c3ccc(Cl)cc3Cl)Cc3cnc(Nc4ccccc4)nc32)c1 | 186 °C
33 | CCOP(=O)(CCN(OCc1ccccc1)S(=O)(=O)c1ccc(C)cc1)OCC | 78 to 80 °C
34 | Cn1nc(-c2c(Cl)cc(C(F)(F)F)cc2Cl)c([N+](=O)[O-])c1N | 107 to 108 °C
35 | CCCCn1c(C)c(C)cc(O)c1=O | 112 to 116 °C
36 | Cc1nnc(-c2cccs2)c(=O)n1N | 210 °C
37 | COC(=O)CN(CC(=O)OC)c1cc(O)cc(O)c1 | 200 to 202 °C
38 | CCOC(=O)N(c1ccccc1N=NC(NC(=O)CCl)(C(=O)OCC)C(=O)OCC)c1cccc(C)c1C | 120 to 122 °C
39 | CCCCOc1c(CNC(=O)OC(C)(C)C)n(CC(C)C)c(=O)c2ccc(-n3ccnn3)cc12 | 190 to 191 °C
40 | CCOC(=O)C1=Cc2cc(Cl)cc(CO[N+](=O)[O-])c2OC1C(F)(F)F (configuration not stated) | 53 °C
41 | Cc1ccc(S(=O)(=O)Cc2cccc(C(F)(F)F)c2)cc1 | 139 to 140 °C
42 | O=C(c1ccn2c1CSC2c1cccnc1)c1c[nH]c2cc(Cl)ccc12 (configuration not stated) | 263 to 265 °C

Continued, values first:

Row | melting point | SMILES
43 | 191 to 192 °C | CN1CCN(C(=O)c2ccc(-c3cnc4c(c3)N(Cc3cc(F)ccc3F)CC(C)(C)N4)cc2)CC1
44 | 96 to 100 °C | COc1ccc(N(N)c2nc(OCc3cccc(OC)c3)ncc2F)cc1
45 | 86 to 87 °C | O=C(NCCc1ccccc1)C1CCc2ccccc2C1 (configuration not stated)
46 | 115 to 118 °C | CSc1ccc(-c2cnn(Cc3ccccc3)c(=O)c2Br)cc1
47 | 205 to 206 °C | CC1(C)Oc2ccc(C#N)cc2[C@@H](N2CCN(c3ccccc3)C2=O)[C@@H]1O (relative stereo)
48 | 132 to 134 °C | COc1cc2c(cc1O)CCN(Cc1cccc(C(C)=O)c1)C2
49 | 240 to 242 °C | O=C1CCC(N2Cc3cc(CNC(=O)Nc4cc(C(F)(F)F)ccc4Cl)ccc3C2=O)C(=O)N1 (configuration not stated)
50 | > 200 °C | Cc1nc(N2CCc3ccccc3CC2)c(C#N)c(=O)[nH]1
51 | 164 to 165 °C | COCc1cc(O)c2nc(C)c(C)n2c1
52 | 299 °C | NC(=O)c1ccc2c(c1)C(=O)c1ccccc1C2=O
53 | 193 to 195 °C | COCc1csc(C(=O)C2C(=O)N(C(N)=O)c3ccc(Cl)cc32)c1 (configuration not stated)
54 | 118 to 121 °C | O=c1cc2c(nn1-c1ccc(Cl)cc1)-c1cc(CO)sc1CCC2
55 | > 300 °C | COc1ccc(-c2cc3c(O)ncnc3[nH]2)cc1
56 | 103 to 104 °C | COCCNC(=O)c1cc(F)cc(-c2cccc3cc(Cc4cccc(C(F)(F)F)c4)sc23)c1
57 | 181 to 182 °C | CCc1csc2ccc3[nH]c4c(c3c12)CN(C)CC4
58 | 212 °C | CCOC(=O)C1=CC(C(=O)c2ccccc2O)=CN2CCc3c([nH]c4ccc(OC)cc34)C12C(=O)OCC (configuration not stated)
59 | 277 to 279 °C | Cc1ccc(NC(=O)CN2C(=O)C3(COc4cc5c(cc43)CCO5)c3ccccc32)c(C)c1 (configuration not stated)
60 | 165 to 166 °C | COc1cccc(OC2COc3ccc(OCc4cc(OC)ccn4)cc3C2O)c1 (configuration not stated)
61 | 177 to 180 °C | COC(=O)c1c(Cl)cc(Cl)cc1NC(=O)CSc1ccc(NC(=O)Cc2cccc(Br)c2)cc1
62 | 205 °C | CNC(=O)c1ccn2c(C(=O)N3CCNCC3)c(Cc3cccc(F)c3C)c(-c3ccccc3)c2c1
63 | 171 to 173 °C | COc1cc(C(C)=O)ccc1OCCCN1CCC(c2n[nH]c3ccccc23)CC1
64 | 162 to 164 °C | COc1cc2ncnc(N3CCC(CCNS(C)(=O)=O)CC3)c2cc1OC
65 | 256 to 258 °C | CC(C)(C)c1cc(-c2nn(C(=O)c3ccc(Cl)cc3)c3ncccc23)cc(C(C)(C)C)c1O
66 | 83 to 85 °C | CCNCCC1CCc2cc(OCc3ccc(-c4ccccc4)cc3)ccc2C1 (configuration not stated)
67 | 105 to 110 °C | COC(=O)C=C(Nc1cc(CCCl)c([N+](=O)[O-])cc1OCc1ccccc1)C(F)(F)F
